ChEMBL document CHEMBL4196147 (J Nat Prod, 2018)

Key:
HCT-116 = experiment: Cytotoxicity against human HCT116 cells assessed as decrease in cell viability after 48 hrs by MTT assay; type: functional, cell-based; settings: HCT-116, 48 h
K562 = experiment: Cytotoxicity against human K562 cells assessed as decrease in cell viability after 48 hrs by MTT assay; type: functional, cell-based; settings: K562, 48 h
L02 = experiment: Cytotoxicity against human LO2 cells assessed as decrease in cell viability after 48 hrs by MTT assay; type: ADME, cell-based; settings: L02, 48 h
[1] = Cytotoxicity against human Huh7.5 cells assessed as decrease in cell viability after 48 hrs by MTT assay; type: functional, cell-based; settings: Huh7.5, 48 h

Compound	IC50 (HCT-116) [µM]	IC50 (K562) [µM]	IC50 (L02) [µM]	IC50 [1] [µM]
C[C@]12O[C@H](C[C@@H](N)[C@H]1O)n1c3ccccc3c3c4c(c5c6ccccc6n2c5c31)CNC4=O	0.2	0.9	2.7	0.4
CC(=O)N[C@@H]1C[C@H]2O[C@@](C)([C@@H]1O)n1c3ccccc3c3c4c(c5c6ccccc6n2c5c31)C(=O)NC4	1	5.2	24.2	2.1
C[C@@H]1O[C@@H](n2c3ccccc3c3c4c(c5c6ccccc6[nH]c5c32)CNC4=O)[C@H](O)[C@H](O)[C@H]1O	9	> 100	73.8	46
CC(=O)N[C@@H]1C[C@H]2O[C@@](C)([C@@H]1O)n1c3ccc(O)cc3c3c4c(c5c6ccccc6n2c5c31)C(=O)NC4	2.7	8.8	> 100	> 100
CC(=O)c1cccn1[C@@H]1C[C@H]2O[C@@](C)([C@@H]1O)n1c3ccccc3c3c4c(c5c6ccccc6n2c5c31)C(=O)NC4	3.9	10.5	> 100	2.7
C[C@@H]1O[C@@H](n2c3ccccc3c3c4c(c5c6ccccc6[nH]c5c32)CNC4=O)C[C@@H](N)[C@H]1O	5.1	7.7	5.8	7
CC(=O)N[C@@H]1C[C@H](n2c3ccccc3c3c4c(c5c6ccccc6[nH]c5c32)CNC4=O)O[C@@H](C)[C@@H]1O	> 100	32.4	41.1	35.2
